Results on 1 compound are retold here after BindingDB's records for doi:10.1016/s0960-894x(00)00166-9 (Universidad Complutense, 2000).

For this assay, the target named is 5-hydroxytryptamine receptor 7 (Rattus norvegicus, UniProt P32305). The experiment in a line: Binding affinity towards 5-hydroxytryptamine 7 receptor.
5-hydroxytryptamine receptor 7, sequence (P32305 whole entry): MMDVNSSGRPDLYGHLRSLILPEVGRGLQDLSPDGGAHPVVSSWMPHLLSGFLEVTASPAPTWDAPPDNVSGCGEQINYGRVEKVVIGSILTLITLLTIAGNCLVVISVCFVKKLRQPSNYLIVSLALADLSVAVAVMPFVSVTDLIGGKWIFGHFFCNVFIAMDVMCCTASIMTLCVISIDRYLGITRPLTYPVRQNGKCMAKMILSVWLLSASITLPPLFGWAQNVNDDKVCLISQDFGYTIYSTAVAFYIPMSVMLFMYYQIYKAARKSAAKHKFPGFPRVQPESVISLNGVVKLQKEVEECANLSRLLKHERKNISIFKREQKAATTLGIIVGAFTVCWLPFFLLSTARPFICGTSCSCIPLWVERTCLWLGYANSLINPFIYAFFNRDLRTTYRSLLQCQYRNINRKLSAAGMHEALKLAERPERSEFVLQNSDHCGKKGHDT

With `CC(C)(C)[C@]1(O)CCN2C[C@H]3c4ccccc4CCc4cccc(c43)[C@@H]2C1`, the Ki – broadly, the equilibrium dissociation constant of an inhibitor or competing ligand from its target – was determined as 63 nM.
